Source: the supplement of paper PMC7214452
Counter-ions that a name gives are not always drawn.

What was measured:
Assay in all cases: normalized area under the dose-response curve (viability relative to DMSO control) (fraction); higher = less sensitive (more viable cells)
Conditions in all cases: exposure time not given
[1] = tested on: OCI-LY19 (cancer type: DLBCL)
Procedure: (§1)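 25 myeloma and 15 non-Hodgkin lymphoma cell lines were exposed to each of 76 drugs as 7-point log dilutions (0.01 nM–10 µM) in duplicate. Viability was read with CellTiter-Glo and normalised to DMSO (0.1%) and staurosporine (10 µM) plate controls. Normalised AUC was calculated by the trapezoidal method relative to the negative control.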

[2] = tested on: KMS28BM (cancer type: MM)
Procedure: as §1

[3] = tested on: LP1 (cancer type: MM)
Procedure: as §1

[4] = tested on: Karpas-299 (cancer type: TCL)
Procedure: as §1

[5] = tested on: NCI-H929 (cancer type: MM)
Procedure: as §1

[6] = tested on: KMS11 (cancer type: MM)
Procedure: as §1

[7] = tested on: OCI-LY3 (cancer type: DLBCL)
Procedure: as §1

[8] = tested on: SU-DHL6 (cancer type: DLBCL)
Procedure: as §1

[9] = tested on: RPMI 8226 (cancer type: MM)
Procedure: as §1

[10] = tested on: SU-DHL2 (cancer type: DLBCL)
Procedure: as §1

[11] = tested on: L363 (cancer type: MM)
Procedure: as §1

[12] = tested on: KMS34 (cancer type: MM)
Procedure: as §1

[13] = tested on: OCI-MY7 (cancer type: MM)
Procedure: as §1

[14] = tested on: Se-Ax (cancer type: TCL)
Procedure: as §1

[15] = tested on: U266 (cancer type: MM)
Procedure: as §1

[16] = tested on: KMS18 (cancer type: MM)
Procedure: as §1

[17] = tested on: SKMM2 (cancer type: MM)
Procedure: as §1

[18] = tested on: KMS26 (cancer type: MM)
Procedure: as §1

[19] = tested on: OCI-MY5 (cancer type: MM)
Procedure: as §1

[20] = tested on: OCI-MY5/Vec (cancer type: MM)
Procedure: as §1

[21] = tested on: OPM2 (cancer type: MM)
Procedure: as §1

[22] = tested on: EJM (cancer type: MM)
Procedure: as §1

[23] = tested on: HuT 78 (cancer type: TCL)
Procedure: as §1

[24] = tested on: MM1.R (cancer type: MM)
Procedure: as §1

[25] = tested on: JJN3 (cancer type: MM)
Procedure: as §1

[26] = tested on: My-La (cancer type: TCL)
Procedure: as §1

[27] = tested on: OCI-MY5/CRBN (cancer type: MM)
Procedure: as §1

[28] = tested on: JeKo-1 (cancer type: Mantle)
Procedure: as §1

[29] = tested on: KMS12PE (cancer type: MM)
Procedure: as §1

[30] = tested on: SR-786 (cancer type: TCL)
Procedure: as §1

[31] = tested on: OCI-LY1 (cancer type: DLBCL)
Procedure: as §1

[32] = tested on: XG2 (cancer type: MM)
Procedure: as §1

[33] = tested on: JVM2 (cancer type: Mantle)
Procedure: as §1

[34] = tested on: Mino (cancer type: Mantle)
Procedure: as §1

[35] = tested on: KMS28PE (cancer type: MM)
Procedure: as §1

[36] = tested on: SU-DHL1 (cancer type: TCL)
Procedure: as §1

[37] = tested on: Granta-519 (cancer type: Mantle)
Procedure: as §1

[38] = tested on: FR4 (cancer type: MM)
Procedure: as §1

[39] = tested on: MM1.S (cancer type: MM)
Procedure: as §1

[40] = tested on: AMO1 (cancer type: MM)
Procedure: as §1

| Compound | normalized area under the dose-response curve [1] | normalized area under the dose-response curve [2] | normalized area under the dose-response curve [3] | normalized area under the dose-response curve [4] | normalized area under the dose-response curve [5] | normalized area under the dose-response curve [6] | normalized area under the dose-response curve [7] | normalized area under the dose-response curve [8] | normalized area under the dose-response curve [9] | normalized area under the dose-response curve [10] | normalized area under the dose-response curve [11] | normalized area under the dose-response curve [12] | normalized area under the dose-response curve [13] | normalized area under the dose-response curve [14] | normalized area under the dose-response curve [15] | normalized area under the dose-response curve [16] | normalized area under the dose-response curve [17] | normalized area under the dose-response curve [18] | normalized area under the dose-response curve [19] | normalized area under the dose-response curve [20] | normalized area under the dose-response curve [21] | normalized area under the dose-response curve [22] | normalized area under the dose-response curve [23] | normalized area under the dose-response curve [24] | normalized area under the dose-response curve [25] | normalized area under the dose-response curve [26] | normalized area under the dose-response curve [27] | normalized area under the dose-response curve [28] | normalized area under the dose-response curve [29] | normalized area under the dose-response curve [30] | normalized area under the dose-response curve [31] | normalized area under the dose-response curve [32] | normalized area under the dose-response curve [33] | normalized area under the dose-response curve [34] | normalized area under the dose-response curve [35] | normalized area under the dose-response curve [36] | normalized area under the dose-response curve [37] | normalized area under the dose-response curve [38] | normalized area under the dose-response curve [39] | normalized area under the dose-response curve [40] |
| --- | --- | --- | --- | --- | --- | --- | --- | --- | --- | --- | --- | --- | --- | --- | --- | --- | --- | --- | --- | --- | --- | --- | --- | --- | --- | --- | --- | --- | --- | --- | --- | --- | --- | --- | --- | --- | --- | --- | --- | --- |
| C=CC(=O)N1CCC[C@@H](n2nc(-c3ccc(Oc4ccccc4)cc3)c3c(N)ncnc32)C1 [Ibrutinib] | 0.865 | 0.786 | 0.892 | 0.845 | 0.84 | 0.738 | 0.829 | 0.852 | 0.765 | 0.903 | 0.759 | 0.518 | 1 | 0.739 | 0.726 | 0.916 | 0.922 | 0.763 | 0.628 | 0.88 | 0.676 | 0.857 | 0.928 | 0.77 | 0.728 | 0.782 | 0.937 | 0.686 | 0.74 | 0.825 | 0.636 | 0.863 | 0.668 | 0.681 | 0.723 | 0.746 | 0.798 | 0.793 | 0.81 | 0.715 |
| COc1cc(C(=O)O)ccc1NC(=O)[C@@H]1N[C@@H](CC(C)(C)C)[C@](C#N)(c2ccc(Cl)cc2F)[C@H]1c1cccc(Cl)c1F [Idasanutlin] | 0.92 | 0.935 | 0.955 | 0.86 | 0.79 | 0.868 | 0.967 | 0.898 | 0.943 | 0.961 | 0.834 | 0.751 | 0.92 | 0.82 | 0.773 | 0.831 | 0.962 | 0.798 | 0.834 | 0.902 | 0.861 | 0.858 | 0.825 | 0.84 | 0.88 | 0.937 | 0.852 | 0.852 | 0.96 | 0.861 | 0.959 | 0.838 | 0.832 | 0.928 | 0.922 | 0.877 | 0.873 | 0.837 | 0.81 | 0.732 |
| CC[C@H](Nc1ncnc2[nH]cnc12)c1nc2cccc(F)c2c(=O)n1-c1ccccc1 [Idelalisib] | 0.806 | 0.818 | 0.832 | 0.891 | 0.78 | 0.87 | 0.809 | 0.694 | 0.826 | 0.962 | 0.815 | 0.728 | 0.89 | 0.731 | 0.859 | 0.978 | 0.897 | 0.876 | 0.742 | 0.903 | 0.931 | 0.942 | 0.85 | 0.74 | 0.834 | 0.81 | 0.941 | 0.842 | 0.85 | 0.916 | 0.737 | 0.832 | 0.606 | 0.882 | 0.879 | 0.782 | 0.78 | 0.872 | 0.78 | 0.831 |
| Cc1ccc(NC(=O)c2ccc(CN3CCN(C)CC3)cc2)cc1Nc1nccc(-c2cccnc2)n1 [Imatinib] | 0.928 | 0.902 | 0.785 | 0.876 | 0.93 | 0.714 | 0.935 | 0.92 | 0.885 | 0.943 | 0.749 | 0.562 | 0.93 | 0.79 | 0.783 | 0.807 | 0.926 | 0.918 | 0.793 | 0.804 | 0.752 | 0.887 | 0.9 | 0.84 | 0.789 | 0.98 | 0.892 | 0.915 | 0.9 | 0.934 | 1 | 0.839 | 0.759 | 0.958 | 0.79 | 0.774 | 0.943 | 0.816 | 0.88 | 0.789 |
| Nc1cccc2c1CN(C1CCC(=O)NC1=O)C2=O (stereo not given) [Lenalidomide] | 0.758 | 0.819 | 0.847 | 0.875 | 0.74 | 0.758 | 0.802 | 0.847 | 0.915 | 0.785 | 0.785 | 0.662 | 0.78 | 0.709 | 0.858 | 0.805 | 0.874 | 0.785 | 0.786 | 0.999 | 0.846 | 0.836 | 0.828 | 0.68 | 0.822 | 0.944 | 0.928 | 0.874 | 0.74 | 0.992 | 0.825 | 0.861 | 0.657 | 0.897 | 0.899 | 0.812 | 0.891 | 0.852 | 0.66 | 0.799 |
| COc1cc2nccc(Oc3ccc(NC(=O)NC4CC4)c(Cl)c3)c2cc1C(N)=O [Lenvatinib] | 0.87 | 0.877 | 0.863 | 0.885 | 0.92 | 0.814 | 0.931 | 0.964 | 0.918 | 0.937 | 0.88 | 0.912 | 0.92 | 0.883 | 0.992 | 0.977 | 0.943 | 0.884 | 0.84 | 0.949 | 0.892 | 0.97 | 0.866 | 0.85 | 0.897 | 0.94 | 0.944 | 0.938 | 0.94 | 0.953 | 0.936 | 0.905 | 0.723 | 0.97 | 0.877 | 0.909 | 0.948 | 1.02 | 0.88 | 0.963 |
| Cc1ccc(F)c(NC(=O)Nc2ccc(-c3cccc4[nH]nc(N)c34)cc2)c1 [Linifanib] | 0.987 | 0.646 | 0.348 | 0.651 | 0.59 | 0.65 | 0.983 | 0.955 | 0.165 | 0.981 | 0.605 | 0.33 | 0.5 | 0.627 | 0.549 | 0.56 | 0.667 | 0.709 | 0.468 | 0.57 | 0.587 | 0.526 | 0.63 | 0.58 | 0.603 | 0.852 | 0.55 | 0.759 | 0.73 | 0.721 | 0.995 | 0.547 | 0.25 | 0.735 | 0.722 | 0.519 | 0.861 | 0.441 | 0.55 | 0.567 |
| N[C@@H](Cc1ccc(N(CCCl)CCCl)cc1)C(=O)O [Melphalan hydrochloride] | 1.01 | 0.95 | 0.85 | 0.907 | 0.77 | 0.826 | 0.858 | 0.905 | 0.897 | 0.936 | 0.73 | 0.573 | 0.73 | 0.778 | 0.885 | 0.842 | 0.892 | 0.791 | 0.643 | 0.936 | 0.896 | 0.685 | 0.787 | 0.8 | 0.874 | 0.892 | 0.926 | 0.788 | 0.86 | 0.973 | 0.94 | 0.776 | 0.742 | 0.818 | 0.758 | 0.41 | 0.798 | 0.919 | 0.79 | 0.722 |
